According to article PMC8541513, “Stereoselective Synthesis of the Di-Spirooxindole Analogs Based Oxindole and Cyclohexanone Moieties as Potential Anticancer Agents” (Molecules, 2021):
Like-named read-outs stand apart in the source and are kept apart here.

Columns and labels:
HeLa cancer cell line = system: HeLa cancer cell line; parameters: method as in doi:10.1016/j.molstruc.2019.03.032; conditions: cited from earlier work
Breast MCF-7 = assay: MTT anticancer assay, breast MCF-7 cells; format: cell-based; conditions: Homo sapiens, MCF7, 48 h, 1-30 µM, ± SD of three independent experiments
Procedure: (§1) The antiproliferative activity against four cancer cell lines, including prostate PC3, cervical HeLa, and triple-negative breast cancer (MCF-7 and MDA-MB231) was evaluated by MTT assay, while standard drug doxorubicin was used as a reference for comparison (Table 1).
(§2) Cytotoxicity against BJ human fibroblast cells and cytotoxicity against PC3, HeLa, MCF-7, and MDA-MB231 cancer cell lines were evaluated by following the procedure as described in the literature (Supplementary Materials). […]
(§3) The Biological Activity Assays Protocols
(§4) Cytotoxic activity of compounds was evaluated in 96-well flat-bottomed micro plates by using the standard MTT (3-[4, 5-dimethylthiazole-2-yl]-2, 5-diphenyl-tetrazolium bromide) colorimetric assay.
(§5) For this purpose, PC3 cells (Prostate Cancer) / BJ Human fibroblast cells / HeLa cells (Cervical Cancer) / MCF-7 and MDA-MB-231 breast cancer cell line were cultured in Dulbecco’s Modified Eagle Medium, supplemented with 5% of fetal bovine serum (FBS), 100 IU/ml of penicillin and 100 µg/ml of streptomycin in 75 cm2 flasks, and kept in 5% CO2 incubator at 37 °C. Exponentially growing cells were harvested, counted with haemocytometer and diluted with a particular medium. Cell culture with the concentration of 1x10^5 cells/ml was prepared and introduced (100 µL/well) into 96-well plates. After overnight incubation, medium was removed and 200 µL of fresh medium was added with different concentrations of compounds (1-30µM). After 48 hrs, 200 µL MTT (0.5 mg/ml) was added to each well and incubated further for 4 hrs. Subsequently, 100µL of DMSO was added to each well. The extent of MTT reduction to formazan within cells was calculated by measuring the absorbance at 570 nm, using a micro plate reader (Spectra Max plus, Molecular Devices, CA, USA). The cytotoxicity was recorded […]
(§6) (1 picture or pasted object on this page, not shown here) […]
(§7) as concentration causing 50% growth inhibition (IC50) for PC3 cells. The percent inhibition was calculated by using the following formula:
(§8) % inhibition = 100-((mean of O.D of test compound – mean of O.D of negative control)/ (mean of O.D of positive control – mean of O.D of negative control)*100).
(§9) The results (% inhibition) were processed by using Soft- Max Pro software (Molecular Device, USA).
(§10) Standard drug used in the MTT assay was doxorubicin. […]

Human Fibroblast BJ = assay: MTT cytotoxicity assay against BJ human fibroblast cells; format: cell-based; conditions: 48 h, 1-30 µM, ± SD of three independent experiments
Procedure: as §2, §3, §4, §5, §6, §7, §8, §9, §10

Cervical HeLa = assay: MTT anticancer assay, cervical HeLa cells; format: cell-based; conditions: Homo sapiens, HeLa, 48 h, 1-30 µM, ± SD of three independent experiments
Procedure: as §1, §2, §3, §4, §5, §6, §7, §8, §9, §10

Prostate PC3 = assay: MTT anticancer assay, prostate PC3 cells; format: cell-based; conditions: Homo sapiens, PC-3, 48 h, 1-30 µM, ± SD of three independent experiments
Procedure: as §1, §2, §3, §4, §5, §6, §7, §8, §9, §10

Breast MDA-MB231 = assay: MTT anticancer assay, breast MDA-MB231 cells; format: cell-based; conditions: Homo sapiens, MDA-MB-231, 48 h, 1-30 µM, ± SD of three independent experiments
Procedure: as §1, §2, §3, §4, §5, §6, §7, §8, §9, §10

HeLa cancer cells = system: HeLa cancer cells; parameters: method as in PMID 30844686; conditions: cited from earlier work
HepG2 [1] = system: HepG2; parameters: method as in Barakat et al. (15); conditions: ref Barakat et al. (15); cited from earlier work
[2] = system: MCF-7 breast cancer cells; parameters: method as in PMID 28126436, PMID 29413708; conditions: cited from earlier work
PC-3 = system: PC-3; parameters: method as in PMID 30802707; conditions: cited from earlier work
HCT-116 = system: HCT-116; parameters: method as in PMID 30802707; conditions: cited from earlier work
HepG2 [3] = system: HepG2; parameters: method as in PMID 30802707; conditions: cited from earlier work
[4] = system: K562 leukemia cancer cells; parameters: method as in PMID 28126436, PMID 29413708; conditions: cited from earlier work

| Structure (SMILES) | IC50 (Breast MCF-7) [µM] | IC50 (Human Fibroblast BJ) [µM] | IC50 (Cervical HeLa) [µM] | IC50 (Prostate PC3) [µM] | IC50 (Breast MDA-MB231) [µM] | other results |
| --- | --- | --- | --- | --- | --- | --- |
| COc1cccc2c1C(=O)c1c(O)c3c(c(O)c1C2=O)C[C@@](O)(C(=O)CO)C[C@@H]3O[C@H]1C[C@H](N)[C@H](O)[C@H](C)O1 [Doxorubicin, reference compound] | 0.79 ± 0.05 | > 30 | 0.9 ± 0.14 | 1.9 ± 0.4 | 0.32 ± 0.002 | IC50 (HeLa cancer cell line): 1.2 µM |
| O=C(c1ccc(F)cc1)[C@H]1[C@H](c2ccc(Cl)cc2Cl)C2CSCN2[C@]12C(=O)Nc1ccccc12 (stereo partly shown) [VI] | – | – | – | – | – | IC50 (HeLa cancer cell line): 11.2 µM |
| O=C(c1ccccn1)[C@@H]1[C@@H](c2ccccc2Cl)[C@H](c2ccccc2)N[C@@]12C(=O)Nc1ccccc12 [III] | – | – | – | – | – | selectivity between HeLa cancer cells and Vero healthy cells (HeLa cancer cells): 3 fold |
| N.N.[Cl][Pt][Cl] [cisplatin] | – | – | – | – | – | IC50 (HepG2 [1]): 5.5 µM |
| O=C1C(=Cc2ccc(Br)cc2)CCCC12C1CCCN1C1(C(=O)Nc3ccccc31)C2c1ccc(Br)cc1 (stereo not shown) [VIII] | – | – | – | – | – | IC50 [2]: 15.32 ± 0.02 µM |
| O=c1[nH]cc(F)c(=O)[nH]1 [Compound 5-FU, 5-fluorouracil] | – | – | – | – | – | IC50 [2]: 78.28 ± 0.2 µM |
| O=C(/C=C/c1ccc(Cl)cc1Cl)[C@H]1[C@H](c2ccc(Cl)cc2Cl)[C@H]2CSCN2[C@]12C(=O)Nc1ccccc12 [V] | – | – | – | – | – | IC50 (PC-3): < 4 µM; selectivity index for the cancer cells versus the normal cells (HCT-116; HCT-116, HepG2, PC-3 versus normal cells): > 2; IC50 (HCT-116): < 4 µM; IC50 (HepG2 [3]): < 4 µM |
| COc1ccc2c(c1)[C@]1(C(=O)N2)N2[C@H](C[C@@H]3CCCC[C@@H]32)[C@@H](c2ccccc2)[C@@]12CCC/C(=C\c1ccccc1)C2=O [Compound 4e, (1. S,1′S,3′S,4a′S,8a′S,9a′R)-3-((E)-Benzylidene)-5″-methoxy-1′-phenyl-4a′,5′,6′,7′,8′,8a′,9′,9a′-octahydro-1′H-dispiro[cyclohexane-1,2′-pyrrolo[1,2-a]indole-3′,3″-indoline]-2,2″-dione] | > 30 | > 30 | 26.5 ± 0.04 | 19.6 ± 1.2 | > 30 | melting point: 111 to 122 °C |
| COc1ccc(C=C2CCCC3(C2=O)C(c2ccc(OC)cc2)C2CSCN2C32C(=O)Nc3ccccc32)cc1 (stereo not shown) [VII] | – | – | – | – | – | IC50 [4]: 13.4 ± 0.14 µM |
| O=C1/C(=C/c2ccc(C(F)(F)F)cc2)CCC[C@@]12[C@H](c1ccc(C(F)(F)F)cc1)[C@H]1C[C@@H]3CCCC[C@@H]3N1[C@]21C(=O)Nc2cc(Cl)ccc21 [Compound 4m, (1. S,1′S,3′S,4a′S,8a′S,9a′R)-6″-Chloro-3-((E)-4-(trifluoromethyl)benzylidene)-1′-(4-(trifluoromethyl)phenyl)-4a′,5′,6′,7′,8′,8a′,9′,9a′-octahydro-1′H-dispiro[cyclohexane-1,2′-pyrrolo[1,2-a]indole-3′,3″-indoline]-2,2″-dione] | > 30 | > 30 | 24.6 ± 0.4 | > 30 | > 30 | melting point: 78 to 79 °C |
